Experimental data published in ChEMBL document CHEMBL4602628, “Design, synthesis, and enzymatic characterization of quinazoline-based CYP1A2 inhibitors” (Bioorg Med Chem Lett, 2020).

Target: T1, Cytochrome P450 1A2 (Homo sapiens, UniProt P05177)
T1 sequence (P05177 whole entry): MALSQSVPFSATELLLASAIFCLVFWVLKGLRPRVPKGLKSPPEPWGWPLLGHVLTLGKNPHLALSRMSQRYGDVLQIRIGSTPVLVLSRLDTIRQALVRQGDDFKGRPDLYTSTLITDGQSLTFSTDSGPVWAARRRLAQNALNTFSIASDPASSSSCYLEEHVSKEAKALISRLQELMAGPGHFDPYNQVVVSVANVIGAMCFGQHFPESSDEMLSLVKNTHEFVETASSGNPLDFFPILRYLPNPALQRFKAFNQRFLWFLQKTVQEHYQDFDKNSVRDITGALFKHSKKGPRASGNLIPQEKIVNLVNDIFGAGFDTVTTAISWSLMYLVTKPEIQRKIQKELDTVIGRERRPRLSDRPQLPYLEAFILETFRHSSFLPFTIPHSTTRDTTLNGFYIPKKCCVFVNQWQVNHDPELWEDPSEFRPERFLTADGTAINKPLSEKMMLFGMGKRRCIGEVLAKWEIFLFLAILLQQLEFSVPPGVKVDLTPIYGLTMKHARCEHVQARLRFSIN
Assay: Inhibition of recombinant human CYP1A2 using luciferin-ME as substrate preincubated for 10 mins followed by NADPH addition and measured after 10 to 30 mins by P450-Glo assay

SMILES	IC50
CN(C)c1ccc(-c2ncc3ccccc3n2)cc1	4200 nM
O=[N+]([O-])c1cccc(-c2ncc3ccccc3n2)c1	1200 nM
c1ccc2nc(-c3ccnc4ccccc34)ncc2c1	960 nM
